Data on three substances can be found in US20240216250A1, “COSMETIC PEPTIDES FOR IMPROVING SKIN REJUVENATION” (Lean Life Sciences, Inc., priority 2021, published 2024).

One data set deals with 3T3-L1 fibroblast. Nature of the data set: Collagen and fibronectin production in 3T3-L1 fibroblast by ELISA, with cell number. The data set is classed as cell-based, mouse. Conditions: across treatment groups. From the text:
Effects of […] (SEQ ID NO: 5) on collagen and fibronectin production are validated in mouse fibroblast. A mouse fibroblast cell line is purchased from American Type Culture Collection (ATCC) to be used in all in vitro studies (3T3-L1 CL-173). The cells are first thawed into two T75 flasks per 1 million cell vial in basal medium I (BMI), which is composed of DMEM (4.5 g/l glucose) supplemented with 10% FBS and 1% Penicillin Streptomycin (P/S). The media is changed the following day, and on day 3, the cells are seeded in 96-well plates (200 μl/well). The peptide was administered to 3T3-L1 fibroblast in five varying concentrations. Collagen and fibronectin produced from the cell was assessed in the cell culture media 3 days after the peptide treatment by ELISA.
A general note: In an ELISA, binding on a coated surface is turned into a signal by an enzyme label.

Another data set deals with 3T3-L1 cells. Nature of the data set: Fructose, glucose and sucrose concentration in adipocytes (3T3-L1 cell lysates, Fructose Assay Kit). It counts as cell-based, mouse. The method, then: Fructose concentration in 3T3-L1 cell lysates was measured using the Fructose Assay Kit (Abcam, Cambridge, UK). Six-well plates were seeded with 5×10^5 3T3-L1 cells/well one day before treating with 150 μM peptide. After 48 hours of treatment, the cells were harvested and fructose concentrations were assayed according to the manufacturer's instruction.
In order to confirm the effect of peptides on reducing the fructose level in adipocytes, three groups of adipocytes were prepared. Among the three groups, one group was treated with GGR, and another group was treated with RAK. The remaining group was not treated with any peptides and used as a control group. […] Fructose—an intermediate metabolite of glucose—was measured to further probe glucose metabolism. 3T3-L1 cells treated with either peptide had lower fructose concentrations than untreated cells (FIG. 1).
An additional group of adipocytes are treated with one of KGGRAKD, KGG, GGR, GRA, RAK, AKD, DKA, KAR, ARG, RGG, GGK, and DKARGGK in the same manner as Example 1-1.

For another data set, the target named is T1, prohibitin (Mus musculus, UniProt P67778).
T1 construct: Fractionated proteins isolated from adipocytes were incubated with the ATS magnetic beads; endogenous in cells; probably 3T3-L1
T1 sequence (P67778 2-272 limits assumed): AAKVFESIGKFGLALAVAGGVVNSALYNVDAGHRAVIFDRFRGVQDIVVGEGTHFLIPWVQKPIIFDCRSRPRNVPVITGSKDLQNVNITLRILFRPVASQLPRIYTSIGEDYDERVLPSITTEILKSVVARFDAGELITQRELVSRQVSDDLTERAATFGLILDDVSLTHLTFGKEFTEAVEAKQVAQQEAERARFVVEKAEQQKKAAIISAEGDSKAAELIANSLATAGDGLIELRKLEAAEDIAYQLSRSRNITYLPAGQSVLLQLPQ
Nature of the data set: ATS/prohibitin binding by ATS magnetic beads, immunoprecipitation and western blot. To be noted: fractionated proteins from adipocytes captured on ATS magnetic beads, western blotting (A of FIG. 2). The text has this: FIG. 2: ATS/prohibitin binding determined by immunoprecipitation and western blot (A of FIG. 2). Location and degree of prohibitin expression in pre- or mature adipocytes. PM, plasma membrane; Cyt, Cytoplasm (B of FIG. 2). Confocal micrographs showing the location of prohibitin in mature- or pre-adipocytes (C of FIG. 2).
It was confirmed that prohibitin shifts its location to the cell membrane as adipogenesis progresses and ATS binds to prohibition. The ATS/prohibitin binding was verified in pre- or mature adipocytes (Won, Y. W. et al. Nat Mater 13, 1157-1164, (2014)). Fractionated proteins isolated from adipocytes were incubated with the ATS magnetic beads and the protein captured by ATS was identified by western blotting. […] Prohibitin is observed in several intracellular locations at varying expression levels depending on the degree of adipogenesis (Wang, P. et al. Cell Mol Life Sci 61, 2405-2417, (2004); Patel, N. et al. Proceedings of the National Academy of Sciences of the United States of America 107, 2503-2508, (2010)). The degree and location of prohibitin expression in pre- or mature adipocytes was determined. […] Confocal microscopy also verified the prohibitin expression on the cell membrane of mature adipocytes (C of FIG. 2). High-level prohibitin expression on the cell membrane of mature adipocytes is important to the ATS/prohibitin interaction.
On the technique in general: A western blot detects proteins with antibodies after separation by electrophoresis.

The next data set relates to 3T3-L1 mature adipocytes. In words: Lipid accumulation in 3T3-L1 adipocytes by Oil Red O staining, with cell count. It counts as cell-based, mouse. Conditions: for Number and size of lipid droplets in adipocytes: Oil Red O, microscopy, peptides at 100 μM, three times per week for three weeks (Day 21), vs non-treated control. The method, then:
FIG. 3: Representative photomicrographs showing Oil Red O-stained mature adipocytes treated with peptides at 100 μM (Day 21). H: Quantitative analysis of the lipids accumulated in the adipocytes (Day 21). Control absorbance: 0.526 (Red line). I: Relative cell counts on day 21.
The effects of the minimal short peptides in blocking lipid accumulation in adipocytes were compared with their parent full-length peptide. After generating five different 3 amino acid fragments (KGG, GGR, GRA, RAK, and AKD) from the original ATS peptide (KGGRAKD (SEQ ID NO:1)), each peptide was administered to 3T3-L1 pre-adipocytes in five varying concentrations. Peptides were treated to the adipocytes three times per week for three weeks. Oil Red O staining was utilized to assess the lipid contents in mature adipocytes in culture. The morphological characteristics of 3T3-L1 mature adipocytes were observed by microscopy. […] Furthermore, the lipids were quantitatively analyzed.
The number of viable cells is counted prior to Oil Red O staining using Cell Counting Kit 8 (Dojindo). This cell viability study allows one to determine potential toxicities of the peptides and compensate for cell number variation-causing artifacts. Oil Red O is dissolved in isopropanol at […] to create a working solution. 12 ml of Oil Red O working solution is mixed with 8 ml dH2O and incubated for 10 minutes. This solution is then filtered using a 0.2 μm syringe filter. Adipocytes seeded on 96-well plates are washed with PBS twice. 10% formaldehyde is added for initial fixation and the plates are incubated for at least 30 minutes. The formaldehyde is removed and the cells are once again washed twice, this time with dH2O. 60% isopropanol is added to each well. The plates are incubated for 5 minutes. The isopropanol is removed from the wells and replaced with Oil Red O working solution. The plates are incubated for an additional 10 minutes. The Oil Red O solution is removed and washed four times with dH2O. Lastly, digital micrographs of the lipid droplets in adipocytes are taken using a light microscope. After the staining protocol, all plates are washed three times with 60% isopropanol. Each time, 5 minutes of gentle rocking was used. The Oil Red O is extracted with 100% isopropanol with gentle rocking for 5 minutes. 200 μl isopropanol per well is used as a background to measure absorbance at 492 nm using a BioTek microplate reader.

For another data set, the system named is DIO mice. Nature of the data set: Body weight gain in DIO mice: obesity progression model (OPM) and obesity model (OM). The data set is classed as in vivo. Conditions: for Anti-obesity efficacy (body weight): oral administration. Here is the method: Prior to oral administration, peptides were administered to DIO mice via intraperitoneal (IP) and subcutaneous (SC) injections.
In the first phase, peptides were tested on pre-obese mice that were being fed high fat diet (HFD) to induce obesity (obesity progression model, OPM). In the second phase, these peptides were given to mice that had already developed obesity (obesity model, OM). […] As the activity of these three peptides varies depending on the injection route and the disease status, all three peptides, GGR, RAK, and AKD, were tested by oral administration.
Prior to oral administration, GGR, RAK, AKD, full-length ATS, and scrambled RKG peptides were administered to OPM mice via IP and SC injections to further screen an ideal peptide composition. PBS was included as a vehicle group. GGR, RAK, and AKD peptides were discovered to impede body weight gain in OPM mice. GGR and RAK were effective when given IP injections and AKD was effective by SC injections (FIGS. 4 and 5).
The second phase signified the post-obesity stage, where the same methods from phase 1 were used on OM mice.
(§1) GGR, RAK, and AKD peptides were tested in OPM and OM mice by oral administration. […] In obesity progression, adipocytes increase in both number and size due to escalating lipid accumulation (Parlee, S. D., et al., Methods Enzymol 537, 93-122, (2014)). Using the methods described above, abdominal fat pads of GGR, RAK, AKD, or PBS-treated DIO mice were histologically analyzed. Epididymal fat tissues were harvested from two mice per experimental group. All samples were fixed in 4% paraformaldehyde, H&E-stained, and imaged. At a 10× magnification, adipocyte cell counting was performed on the digital slide images using an automated adipocyte counting macro with the ImageJ software. A default thresholding method was used and [cell] sizing boundaries of 40-40,000 were set. Limitations of the segmentation tool led to some erroneous selections or regions of interest (ROI), which were manually corrected by adding or erasing lines. The number of cells per representative field were then determined using the ROI manager in ImageJ. Two or three high power fields (hpf) per tissue and two tissue samples per group were analyzed to reduce variability. Average cell count for each group was calculated accordingly. Areas of all adipocytes of interest were measured using the ROI measurement tool (ImageJ) and average area per cell was calculated accordingly.

In data set [1] the test system is abdominal fat pads of DIO mice. Nature of the data set: Histological analysis of fat pads of DIO mice (adipocyte number and size). It counts as in vivo. Conditions: epididymal fat. Here is the method: FIG. 10. Histological analysis fat pads. An automated system detected and counted adipocytes (yellow line). Adipocyte number and size: average of 3 hpf images from 2 mice (total 6 images/group).
as §1
The primary function of adipocytes is to store energy in the form of lipids. The volume of lipid stored in an adipocyte cell increases as the third power of the diameter. Because mature adipocytes are composed of large lipid droplets that are surrounded by very thin cytoplasmic layers, the increase in volume of an adipocyte cell likely indicates increased lipid storage. Thus, smaller adipocyte size/area translates to reduced lipid accumulation.

Entries after “also recorded” stand apart in the source; their conditions may differ. Ends that are not written are not given here.

Turning to ACTGSTQHQGGGSESPLKRQG, the “Cell number at the end point (toxicity)” value in the data set on 3T3-L1 fibroblast is listed as “almost the same across the treatment groups”.

Turning to KGGRAKD, in the data set with 3T3-L1 cells (Examples 1-2 to 1-11, same manner as Example 1-1), the “Fructose concentration in adipocytes vs control group” value is “significantly lower than the control group”. Besides, in the data set with prohibitin, the “Binding of ATS to prohibitin” value is “specifically binds to prohibitin”. For the same substance, the “Number and size of lipid droplets in adipocytes” value with 3T3-L1 mature adipocytes is “smaller than those in the non-treated control”.

RAK: the “Fructose concentration in adipocytes vs control group” value in the data set with 3T3-L1 cells (3T3-L1 cells, 150 μM peptide, 48 hours, vs untreated control (FIG. 1)) is recorded as “significantly lower than the control group”. Further, the “Decrease in degree of lipid accumulation” value with 3T3-L1 mature adipocytes (3T3-L1 mature adipocytes, quantitative Oil Red O analysis, Day 21 (H of FIG. 3)) was “approximately 20%”. Further, in the data set on 3T3-L1 mature adipocytes, the “Number and size of lipid droplets in adipocytes” value is listed as “smaller than those in the non-treated control”. Moreover, the “Reduction of lipid accumulation” value in the data set on 3T3-L1 mature adipocytes (murine-based in vitro systems) is “effective in reducing lipid accumulation”. For the same substance, the “Prevention of body weight gain / body weight change” value is on record as “positive effects on prevention of body weight gain” in the data set with DIO mice (post-obese OM mice, IP injection) and “effective” with DIO mice (post-obese OM mice, SC injection). In addition, the “Anti-obesity efficacy (body weight)” value with DIO mice (post-obese OM mice) is “has anti-obesity efficacy”; in the data set with DIO mice (pre-obese OPM mice), “efficacious over GGR; also recorded: has anti-obesity efficacy”. For the same substance, the “Prevention of body weight gain” value in the data set on DIO mice (pre-obese OPM mice on HFD, IP injection) is reported as “positive effects on prevention of body weight gain; also recorded: effective”. Further, in data set [1] (adipocytes, 10× magnification, ImageJ, rank among all experimental groups (FIG. 10)), the “Average cell count per field” value is reported as “highest”. Besides, the “Activity by histological analysis of the fat pads” value in data set [1] (H&E, DIO mice) is “more active than GGR; also recorded: highest efficacy”. For the same substance, in data set [1] (ImageJ ROI, rank among all experimental groups (FIG. 10)), the “Average adipocyte area per cell” value was “lowest”.
